According to patent US11207366B2, “Traditional Chinese medicine composition comprising dried tangerine peels and dark tea for treating diabetes and preparation method thereof” (priority 2017, dated 2021):

Tested on: diabetes patients
Experiment: Clinical experiment examples: fasting blood glucose of diabetes patients
Assay type: in vivo, human
Description: In another preferred embodiment of the present invention, the tea bricks after the above-mentioned about 2-year aging time are pulled apart and left in the air for about 30 days for oxidization. After the loosen tea leaves are oxidized for about 30 days, they are smashed into small particles or powders. And then another 5 parts (by weight) to 15 parts (by weight) of blended tangerine peels are taken and smashed into particles or powders. The above-mentioned tangerine peels, in particles or powders form, are blended into the above-mentioned black teas, in particles or powders form. Then the composition can be used as the traditional Chinese medical tea drinks for treating diabetes. General patients can drink the tea once or twice a day, each time 5-10 grams. Severe patients can drink twice a day, each time 10-20 grams.
Clinical Experiment Examples
Oct. 23, 2016: fasting blood glucose was 8.9 mml. The patient administrated metformin, three times a day, one tablet each time before meals.
Oct. 29, 2016: the value of fasting blood glucose was 6.8 mml, and the traditional Chinese medicine tea drinks of the present invention were administrated twice a day, each time 5 grams of the tea, with the continuation of administration of the metformin.
Subject: The patient is a person, who has a long history of diabetes. Before drinking the traditional Chinese medicine tea drinks of the present invention, the subject administrated hypoglycemic agents (metformin) for long before each meal, each time 2 tablets. Test results (measured on empty stomach at 7 o'clock in the morning)
From the above case, it can be seen that only administration of metformin to decrease blood glucose would not lead to a good controlling effect, and the average value of blood glucose was 12.3 mml with a large fluctuation that varies from the 8.5 mml to the highest 19.5 mml After drinking the traditional Chinese medicine tea drinks of the present invention (brewing 1 to 2 bags every day), the average value of blood glucose was 8.6 mml with a steady trend where the values were fluctuated within 7-10 mml without the occurrence of very high measured results.

SMILES: CN(C)C(=N)N=C(N)N [metformin]
- fasting blood glucose (Case 1, Oct. 23, 2016, metformin three times a day, one tablet before meals (first day reported)): 8.9 mml
- fasting blood glucose (Case 1, Oct. 24, 2016, metformin only): 7.5 mml
- fasting blood glucose (Case 1, Oct. 25, 2016, metformin only): 7.4 mml
- fasting blood glucose (Case 1, Oct. 26, 2016, metformin only, big dinner and wine the evening before): 8.3 mml
- fasting blood glucose (Case 1, Oct. 29, 2016, on metformin, day the tea drinks (twice a day, 5 grams) were started): 6.8 mml
- measured average value of blood glucose (Case 1, metformin, 9 days from October 20 to October 29): 7.5 mml
- blood glucose measured on empty stomach at 7 o'clock in the morning (Case 2, metformin only (2 tablets before each meal), Aug. 24, 2016): 9.4 mml
- blood glucose measured on empty stomach at 7 o'clock in the morning (Case 2, metformin only, Aug. 28, 2016): 9.9 mml
- blood glucose measured on empty stomach at 7 o'clock in the morning (Case 2, metformin only, Dec. 2, 2016): 11.8 mml
- blood glucose measured on empty stomach at 7 o'clock in the morning (Case 2, metformin only, Dec. 9, 2016): 12.6 mml
- blood glucose measured on empty stomach at 7 o'clock in the morning (Case 2, metformin only, Dec. 14, 2016): 11.9 mml
- blood glucose measured on empty stomach at 7 o'clock in the morning (Case 2, metformin only, Dec. 18, 2016): 12.3 mml
- blood glucose measured on empty stomach at 7 o'clock in the morning (Case 2, metformin only, Dec. 24, 2016): 12.5 mml
- blood glucose measured on empty stomach at 7 o'clock in the morning (Case 2, metformin only, Dec. 28, 2016): 14.7 mml
- blood glucose measured on empty stomach at 7 o'clock in the morning (Case 2, metformin only, Jan. 2, 2017): 13.3 mml
- blood glucose measured on empty stomach at 7 o'clock in the morning (Case 2, metformin only, Jan. 6, 2017): 11.8 mml
- blood glucose measured on empty stomach at 7 o'clock in the morning (Case 2, metformin only, Nov. 1, 2016): 14.5 mml
- blood glucose measured on empty stomach at 7 o'clock in the morning (Case 2, metformin only, Nov. 5, 2016): 13.4 mml
- blood glucose measured on empty stomach at 7 o'clock in the morning (Case 2, metformin only, Nov. 10, 2016): 11.1 mml
- blood glucose measured on empty stomach at 7 o'clock in the morning (Case 2, metformin only, Nov. 13, 2016): 13 mml
- blood glucose measured on empty stomach at 7 o'clock in the morning (Case 2, metformin only, Nov. 18, 2016): 14 mml
- blood glucose measured on empty stomach at 7 o'clock in the morning (Case 2, metformin only, Nov. 20, 2016): 8.5 mml
- blood glucose measured on empty stomach at 7 o'clock in the morning (Case 2, metformin only, Nov. 27, 2016): 9.4 mml
- blood glucose measured on empty stomach at 7 o'clock in the morning (Case 2, metformin only, Oct. 1, 2016): 11 mml
- blood glucose measured on empty stomach at 7 o'clock in the morning (Case 2, metformin only, Oct. 4, 2016): 12.7 mml
- blood glucose measured on empty stomach at 7 o'clock in the morning (Case 2, metformin only, Oct. 11, 2016): 15.9 mml
- blood glucose measured on empty stomach at 7 o'clock in the morning (Case 2, metformin only, Oct. 24, 2016): 19.5 mml
- blood glucose measured on empty stomach at 7 o'clock in the morning (Case 2, metformin only, Sep. 3, 2016): 12.5 mml
- blood glucose measured on empty stomach at 7 o'clock in the morning (Case 2, metformin only, Sep. 11, 2016): 8.7 mml
- blood glucose measured on empty stomach at 7 o'clock in the morning (Case 2, metformin only, Sep. 23, 2016): 11.6 mml
- average value of blood glucose (Case 2, only administration of metformin): 12.3 mml
